Source: ChEMBL document CHEMBL3044940, “Activities of essential oils from Asarum heterotropoides var. mandshuricum against five phytopathogens” (Crop Prot, 2010)
In brackets after ≈: the same amount, converted by molar mass. Activity calls are given as the source filed them. The calls are words filed in the database; no cut-off is given here.

Experiments:
Type in all cases: functional, organism-based
Phytophthora cactorum [1] = assay: Growth inhibition of Phytophthora cactorum after 48 hr
Phytophthora cactorum [2] = assay: Induction of changes in hyphae ultrastructures in Phytophthora cactorum assessed as mitochondria level changes at 0.052 ug/ml by transmission electron microscopy
Phytophthora cactorum [3] = assay: Induction of changes in hyphae ultrastructures in Phytophthora cactorum assessed as plasmalemma invagination at 0.052 ug/ml by transmission electron microscopy; conditions: Plasma
Fusarium solani = assay: Growth inhibition of Fusarium solani after 48 hr
Phytophthora cactorum [4] = assay: Induction of changes in hyphae ultrastructures in Phytophthora cactorum assessed as membranes obscuring at 0.052 ug/ml by transmission electron microscopy
Alternaria humicola = assay: Growth inhibition of Alternaria humicola after 48 hr
Phytophthora cactorum [5] = assay: Induction of changes in hyphae ultrastructures in Phytophthora cactorum assessed as endoplasmic reticulum structure changes at 0.052 ug/ml by transmission electron microscopy
Phytophthora cactorum [6] = assay: Induction of changes in hyphae ultrastructures in Phytophthora cactorum assessed as cell wall thickening at 0.052 ug/ml by transmission electron microscopy
[7] = test system: Colletotrichum gloeosporioides; assay: Growth inhibition of Colletotrichum gloeosporioides after 48 hr
Rhizoctonia solani = assay: Growth inhibition of Rhizoctonia solani after 48 hr
Phytophthora cactorum [8] = assay: Induction of changes in hyphae ultrastructures in Phytophthora cactorum at 0.052 ug/ml by transmission electron microscopy

| SMILES | IC50 (Phytophthora cactorum [1]) [µg/mL] | Activity (Phytophthora cactorum [2]) | Activity (Phytophthora cactorum [3]) | growth inhibition (GI) (Fusarium solani) | Activity (Phytophthora cactorum [4]) | IC50 (Alternaria humicola) [µg/mL] | Activity (Phytophthora cactorum [5]) | Activity (Phytophthora cactorum [6]) | IC50 [7] [µg/mL] | IC50 (Rhizoctonia solani) [µg/mL] | Activity (Phytophthora cactorum [8]) |
| --- | --- | --- | --- | --- | --- | --- | --- | --- | --- | --- | --- |
| COCC(=O)N(c1c(C)cccc1C)C(C)C(=O)OC (configuration not stated) [METALAXYL] | 0.013 (≈ 0.0465 µM) |  |  |  |  |  |  |  |  |  |  |
| C=CCc1ccc(OC)c(OC)c1 [METHYLEUGENOL] | 0.052 (≈ 0.292 µM) | Active | Active | inactive | Active | 0.144 (≈ 0.808 µM) | Active | Active | 0.09 (≈ 0.505 µM) | 0.279 (≈ 1.57 µM) | Active |
